Test results taken from ChEMBL document CHEMBL3046840, “Cyclobutane carboxamide inhibitors of fungal melanin: biosynthesis and their evaluation as fungicides” (Bioorg Med Chem, 2000).

Target: T1, Scytalone dehydratase (Magnaporthe oryzae (strain 70-15 / FGSC 8958) (Rice blast fungus)(Pyricularia oryzae), UniProt P56221)
T1 sequence (P56221 whole entry): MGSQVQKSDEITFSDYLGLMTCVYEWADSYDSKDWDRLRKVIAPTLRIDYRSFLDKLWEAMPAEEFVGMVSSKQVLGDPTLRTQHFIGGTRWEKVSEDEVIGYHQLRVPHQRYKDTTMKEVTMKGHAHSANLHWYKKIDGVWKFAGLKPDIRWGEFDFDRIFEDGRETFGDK

**Q.** With `C[C@@H](NC(=O)[C@]1(C(F)(F)F)C[C@@](C)(Cl)C1)c1ccc(Cl)cc1Cl` as the compound, how does the Ki read?
**A.** Its Ki is 11 pM.

**Q.** `C[C@H](COc1cc(F)ccc1Cl)NC(=O)[C@]1(C)C[C@](C)(Cl)C1` was tested. Which Ki did it give?
**A.** Its Ki is 57 pM.

**Q.** `C[C@H](COc1ccccc1F)NC(=O)[C@]1(C(F)(F)F)C[C@@](C)(Cl)C1` was tested. Which Ki did it give?
**A.** The Ki was 350 pM.

**Q.** `C[C@@H](NC(=O)C1CCC1)c1ccc(Br)cc1` was tested. Which Ki did it give?
**A.** The Ki was 520000 pM.

**Q.** How did the Ki turn out when `C[C@@H](NC(=O)[C@H]1C[C@@](C)(Cl)C1)c1ccc(Br)cc1` was run?
**A.** Its Ki is 44000 pM.

**Q.** For `C[C@@H](NC(=O)C1(Cl)CC(Cl)(Cl)C1)c1ccc(Br)cc1`, which Ki is on record?
**A.** The Ki was 450 pM.

**Q.** How did the Ki turn out when `C[C@@H](NC(=O)C1(C)CC(F)(F)C1)c1ccc(Br)cc1` was run?
**A.** The Ki was 6000 pM.

**Q.** How did the Ki turn out when `C[C@@H](NC(=O)[C@]1(C)C[C@](C)(Cl)C1)c1ccc(Br)cc1` was run?
**A.** The Ki was 100 pM.

**Q.** For `C[C@@H](NC(=O)[C@]1(C)C[C@](Cl)(CCl)C1)c1ccc(Br)cc1`, which Ki is on record?
**A.** Its Ki is 27 pM.

**Q.** For `C[C@@H](NC(=O)[C@]1(C)C[C@@](Cl)(CCl)C1)c1ccc(Br)cc1`, which Ki is on record?
**A.** Its Ki is 16 pM.

**Q.** How did the Ki turn out when `CC[C@]1(C(=O)N[C@H](C)c2ccc(Br)cc2)C[C@@](C)(Cl)C1` was run?
**A.** Its Ki is 21 pM.

**Q.** For `C[C@@H](NC(=O)[C@]1(C)C[C@](C)(O)C1)c1ccc(Br)cc1`, which Ki is on record?
**A.** The Ki was 480000 pM.

**Q.** For `C[C@@H](NC(=O)[C@]1(C)C[C@@](C)(O)C1)c1ccc(Br)cc1`, which Ki is on record?
**A.** Its Ki is 16000 pM.

**Q.** Which Ki does the source give for `C#C[C@]1(O)C[C@@](C)(C(=O)N[C@H](C)c2ccc(Br)cc2)C1` here?
**A.** Its Ki is 28000 pM.

**Q.** Which Ki does the source give for `CC[C@]1(O)C[C@@](C)(C(=O)N[C@H](C)c2ccc(Br)cc2)C1` here?
**A.** The Ki was 3200 pM.

**Q.** With `C[C@@H](NC(=O)[C@]1(C)C[C@](C)(Cl)C1)c1ccc(Cl)cc1Cl` as the compound, how does the Ki read?
**A.** The Ki was 12 pM.

**Q.** `C[C@@H](NC(=O)[C@]1(C)C[C@](C)(Cl)C1)c1cccc2ccccc12` was tested. Which Ki did it give?
**A.** Its Ki is 3200 pM.

**Q.** Which Ki does the source give for `C[C@@H](NC(=O)[C@]1(C)C[C@](C)(Cl)C1)c1ccc2ccccc2c1` here?
**A.** The Ki was 16 pM.

**Q.** `C[C@H](COc1cc(F)ccc1F)NC(=O)[C@]1(C)C[C@](C)(Cl)C1` was tested. Which Ki did it give?
**A.** Its Ki is 420 pM.

**Q.** With `C[C@@H](NC(=O)[C@]1(C(F)(F)F)C[C@@](C)(Cl)C1)c1ccc(Br)cc1` as the compound, how does the Ki read?
**A.** The Ki was 430 pM.

**Q.** With `C[C@@H](NC(=O)[C@]1(C(F)(F)F)C[C@@](C)(Cl)C1)c1ccc(Cl)cc1` as the compound, how does the Ki read?
**A.** The Ki was 67 pM.

**Q.** `CC(C)C(C)(C#N)NC(=O)[C@H](C)Oc1ccc(Cl)cc1Cl` (stereo not given in full) was tested. Which Ki did it give?
**A.** Its Ki is 130 pM.

**Q.** Which Ki does the source give for `C[C@@H](NC(=O)C1(Cl)CC(C)(Cl)C1)c1ccc(Br)cc1` (mixture of isomers) here?
**A.** The Ki was 310 pM.

**Q.** `COc1cc(Br)ccc1C(C)NC(=O)[C@]1(C)C[C@](C)(Cl)C1` (mixture of isomers) was tested. Which Ki did it give?
**A.** The Ki was 30 pM.

**Q.** How did the Ki turn out when `C[C@@H](NC(=O)C(C#N)C(C)(C)C)c1ccc(Cl)cc1Cl` (stereo not given in full) [DICLOCYMET] was run?
**A.** The Ki was 36 pM.
